# Assay results as given in patent publication US10351509B2, “Fenfluramine compositions and methods of preparing the same” (priority 2015, dated 2019).
# Like-named read-outs stand apart in the source and are kept apart here. Marks after values point to notes of the source that are not given here.
# Tests used:
# [1] = pKa (water) of drug substance
# [2] = Stability analysis of the salt (Form 1) under temperature/humidity and photostability conditions; assay type: physicochemical; settings: one week at 40° C./0% RH, three weeks at 40° C./75% RH, and photostability conditions
# From the text: Fenfluramine HCl is developed as a single polymorph Form 1. A polymorphism and pre-formulation study has been conducted. Under a wide range of solvents and conditions crystalline material is produced of the same polymorph Form 1 based on a well-defined XRPD pattern and a consistent reproducible endotherm by DSC analysis. A summary of the chemophysical properties of Fenfluramine HCl from this study is provided below. Tabulated data includes example diffractograms, DSCs, and micrographs.
# [3] = Holding at approximately 170° C., analysis by XRPD, DSC and 1H NMR; assay type: physicochemical; settings: held at approximately 170° C. for several hours
# Protocol: Holding Fenfluramine HCl at approximately 170° C. for several hours causes a melt and evaporation event to take place with recombination and cooling to provide a white solid.
# [4] = Hygroscopicity by Dynamic Vapor Sorption (DVS); assay type: physicochemical
# [5] = for Parent remaining: 168 h
# [6] = Solubility in organic solvents; settings: 25 °C, organic solvent or mixture
# [7] = Aqueous solubility
# [8] = Solid stability by HPLC; assay type: physicochemical; settings: 8 weeks at 40° C., 60° C. and 80° C.; 7 days at 150° C.; all conditions
# [9] = Solution pH (water); assay type: physicochemical
compound,measurement,setting,value
"CCNC(C)Cc1cccc(C(F)(F)F)c1.Cl (racemic) [Fenfluramine HCl, N-ethyl-α-methyl-3-(trifluoromethyl)-benzeneethanamine hydrochloride (1:1)]",pKa,[1],10.2 to 10.4
same,Stability of the salt: form and new impurities at 0.1% threshold,[2],input Form 1 has been maintained with no new impurities observed at 0.1% threshold
same,"Change after melt and evaporation event (XRPD, DSC, 1H NMR)",[3],"no change in chemical or physical form, purity, or dissociation"
same,Hygroscopicity (Dynamic Vapor Sorption (DVS)),[4]; @30% RH,@30% RH: ~0.05%
same,Hygroscopicity (Dynamic Vapor Sorption (DVS)),[4]; @60% RH,@60% RH: ~0.07%
same,Hygroscopicity (Dynamic Vapor Sorption (DVS)),[4]; @90% RH,@90% RH: ~0.20%^a)
same,Parent remaining after degradation,[5]; 24 h,94.42%
same,Parent remaining,[5],99.90 parent area %
same,Parent remaining,[5]; buffer,99.73 parent area %
same,solubility,[6]; dichloromethane,30 to 35 mg/mL
same,solubility,[6]; ethanol,150 mg/mL
same,solubility,"[6]; ethyl acetate, tetrahydrofuran, toluene, acetonitrile",1 to 5 mg/mL
same,solubility,"[7]; 0.9% NaCl in water, 25 °C, saline or isotonic",23 mg/mL
same,solubility,"[7]; pH 1.73 buffer, 25 °C, pH 1.73, simulated gastric fluid",25.3 mg/mL
same,solubility,"[7]; pH 1.73 buffer, 37 °C, pH 1.73, simulated gastric fluid",53.7 mg/mL
same,solubility,"[7]; pH 3.43 buffer, 25 °C, pH 3.43, aqueous buffer",29.5 mg/mL
same,solubility,"[7]; pH 3.43 buffer, 37 °C, pH 3.43, aqueous buffer",62 mg/mL
same,solubility,"[7]; pH 6.41 buffer, 25 °C, pH 6.41, aqueous buffer",37.4 mg/mL
same,solubility,"[7]; pH 6.41 buffer, 37 °C, pH 6.41, aqueous buffer",95.6 mg/mL
same,solubility,"[7]; water, 25 °C, pH 6.69, water",54.1 mg/mL
same,solubility,"[7]; water, 37 °C, pH 6.69, water",71.2 mg/mL
same,Solid Stability: new impurities >0.1% by HPLC,[8],"150 °C All conditions, no new impurities >0.1% by"
same,Solution pH (water),[9],6.69
